{
  "source": "patent US20230270804A1",
  "about": "“ANTI-HYPERCHOLESTEROLEMIA COMPOSITION AND A METHOD OF MANUFACTURING THE SAME” (NBI BIOSCIENCES PRIVATE LIMITED, priority 2020, published 2023)",
  "assay_type_in_all_cases": "in vivo, Wistar strain albino rats",
  "key": {"[1]": {"experiment": "Prophylactic study: organ weights after sacrifice", "conditions": "HFD+normal diet", "quoted_text": "The prophylactic study which lasted 90 days used 6 rats per group. […] The 6 groups were as follows: • 1. Normal Control • 2. High Fat Diet (HFD) 1 ml 1/d+Normal Diet • 3. High Fat Diet (HFD)+Normal Diet+the composition of the present invention (OD) • 4, High Fat Diet (HFD)+Normal Diet+the composition of the present invention (BD) • 5. […] The body weights were recorded to the nearest gram (g) with proper tare to 0.0000 with the subject at steady state on the weighing machine. The same weighing machine was used for all the subjects. The machine was tested with a known set of weights for any error."}, "[2]": {"test_system": "hypercholesterolemia induced wistar rat's models", "experiment": "Prophylactic study: lipid profile (TC, TG, HDL-C, LDL-C, VLDL)", "conditions": "for HDL-C / LDL-C / TC / TG / VLDL: HFD+normal diet", "protocol": "(§1) Wistar strain albino rats of body weight ranging from 190-225 g were selected for the present study. The temperature and humidity were kept at optimum (22+2° C.; 40-70% and animals were exposed to natural chronological day night cycles. The experiments were carried out in conformity with the Institutional Animal Ethics Committee.\n(§2) The 6 groups were as follows: • 1. Normal Control • 2.\n(§3) 1.5-2 ml blood sample was taken from retino-orbital chamber in vials for biochemical estimations at every 15 days. Investigations performed included detailed Total Cholesterol—TC (mg/dl), Triglyceride—TG (mg/dl), High Density Lipoprotein—HDL-C (mg/dl), Low Density Lipoprotein—LDL-C (mg/dl), Very Low-Density Lipoprotein—VLDL (mg/dl), WBC (10^3/u1), RBC (10^6/u1), Hb (g/dl), PCV (%), Reticulocyte (%), Platelet count 10^5/mm^3, Clotting time (Sec), Neutrophils, Lymphocyte, Monocyte and Eosinophil. The estimations were done with Ecoline kits from Erba Mannheim, ERBA diagnostics Mannheml, Germany using Semi Autoanalyzer RX50 of MicroLabs Instruments and COUNCELL21 of Tulip Diagnostics Pvt. Ltd. Lipid peroxidation (Plasma & Liver), HMG Co-Reductase, Creatine phosphokinase (CPK), Lactate dehydrogenase (LDH), SGOT and SGPT were estimated at the end of both the studies using the kits."}, "[3]": {"experiment": "Therapeutic study (60 days treatment after 90 days HFD): body weight", "conditions": "in g", "protocol": "as §1, §2"}, "[4]": {"test_system": "Creatine phosphokinase (CPK), Lactate dehydrogenase (LDH), SGOT and SGPT", "experiment": "Prophylactic study: CPK, LDH, SGOT, SGPT", "protocol": "as §3"}, "[5]": {"test_system": "Creatine phosphokinase (CPK), Lactate dehydrogenase (LDH), SGOT and SGPT", "experiment": "Therapeutic study: CPK, LDH, SGOT, SGPT", "protocol": "as §3"}, "[6]": {"conditions": "HFD+normal diet, after sacrifice"}},
  "data": [
    {"smiles": "CC(C)c1c(C(=O)Nc2ccccc2)c(-c2ccccc2)c(-c2ccc(F)cc2)n1CC[C@@H](O)C[C@@H](O)CC(=O)O", "note": "[Statin, Atorvastatin]", "values": [
      {"measurement": "Heart weight", "setting": "[1]", "result": "2.79 ± 0.03", "unit": "g/100 g bd · wt"},
      {"measurement": "Intestine weight", "setting": "[1]", "result": "3.54 ± 0.03"},
      {"measurement": "Kidney weight", "setting": "[1]", "result": "1.15 ± 0.03", "unit": "g/100 g bd · wt"},
      {"measurement": "Liver weight", "setting": "[1]", "result": "3.90 ± 0.05", "unit": "g/100 g bd · wt"},
      {"measurement": "Lungs weight", "setting": "[1]", "result": "1.96 ± 0.02", "unit": "g/100 g bd · wt"},
      {"measurement": "Spleen weight", "setting": "[1]", "result": "0.65 ± 0.03"},
      {"measurement": "pancreas weight", "setting": "[1]", "result": "0.90 ± 0.05", "unit": "g/100 g bd · wt"},
      {"measurement": "HDL-C", "setting": "[2]; day 0", "result": "34.60 ± 1.50", "unit": "mg/dL"},
      {"measurement": "LDL-C", "setting": "[2]; day 0", "result": "47.10 ± 1.25", "unit": "mg/dL"},
      {"measurement": "TC", "setting": "[2]; day 0", "result": "81.95 ± 1.35", "unit": "mg/dL"},
      {"measurement": "TG", "setting": "[2]; day 0", "result": "16.75 ± 1.10", "unit": "mg/dL"},
      {"measurement": "VLDL", "setting": "[2]; day 0", "result": "2.48 ± 0.15", "unit": "mg/dL"},
      {"measurement": "HDL-C", "setting": "[2]; day 15", "result": "31.56 ± 1.26", "unit": "mg/dL"},
      {"measurement": "LDL-C", "setting": "[2]; day 15", "result": "48.68 ± 0.29", "unit": "mg/dL"},
      {"measurement": "TC", "setting": "[2]; day 15", "result": "85.24 ± 1.55", "unit": "mg/dL"},
      {"measurement": "VLDL", "setting": "[2]; day 15", "result": "2.86 ± 0.35", "unit": "mg/dL"},
      {"measurement": "HDL-C", "setting": "[2]; day 30", "result": "35.66 ± 2.08", "unit": "mg/dL"},
      {"measurement": "LDL-C", "setting": "[2]; day 30", "result": "56.60 ± 4.50", "unit": "mg/dL"},
      {"measurement": "TC", "setting": "[2]; day 30", "result": "85.66 ± 4.04", "unit": "mg/dL"},
      {"measurement": "TG", "setting": "[2]; day 30", "result": "22.66 ± 3.10", "unit": "mg/dL"},
      {"measurement": "VLDL", "setting": "[2]; day 30", "result": "2.96 ± 0.02", "unit": "mg/dL"},
      {"measurement": "HDL-C", "setting": "[2]; day 45", "result": "38.33 ± 5.85", "unit": "mg/dL"},
      {"measurement": "LDL-C", "setting": "[2]; day 45", "result": "57 ± 4.0", "unit": "mg/dL"},
      {"measurement": "TC", "setting": "[2]; day 45", "result": "87.5 ± 5.04", "unit": "mg/dL"},
      {"measurement": "TG", "setting": "[2]; day 45", "result": "24.86 ± 4.20", "unit": "mg/dL"},
      {"measurement": "VLDL", "setting": "[2]; day 45", "result": "3.03 ± 0.19", "unit": "mg/dL"},
      {"measurement": "HDL-C", "setting": "[2]; day 60", "result": "39.60 ± 5.57", "unit": "mg/dL"},
      {"measurement": "LDL-C", "setting": "[2]; day 60", "result": "57.23 ± 4.43", "unit": "mg/dL"},
      {"measurement": "TC", "setting": "[2]; day 60", "result": "88.5 ± 4.44", "unit": "mg/dL"},
      {"measurement": "TG", "setting": "[2]; day 60", "result": "24.4 ± 4.61", "unit": "mg/dL"},
      {"measurement": "VLDL", "setting": "[2]; day 60", "result": "3.0 ± 0.13", "unit": "mg/dL"},
      {"measurement": "HDL-C", "setting": "[2]; day 75", "result": "33.53 ± 1.92", "unit": "mg/dL"},
      {"measurement": "LDL-C", "setting": "[2]; day 75", "result": "55.27 ± 4.39", "unit": "mg/dL"},
      {"measurement": "TC", "setting": "[2]; day 75", "result": "90.95 ± 2.05", "unit": "mg/dL"},
      {"measurement": "TG", "setting": "[2]; day 75", "result": "22.67 ± 4.16", "unit": "mg/dL"},
      {"measurement": "VLDL", "setting": "[2]; day 75", "result": "2.98 ± 0.84", "unit": "mg/dL"},
      {"measurement": "HDL-C", "setting": "[2]; day 90", "result": "34.26 ± 1.26", "unit": "mg/dL"},
      {"measurement": "LDL-C", "setting": "[2]; day 90", "result": "52.83 ± 1.76", "unit": "mg/dL"},
      {"measurement": "TC", "setting": "[2]; day 90", "result": "90.22 ± 2.10", "unit": "mg/dL"},
      {"measurement": "TG", "setting": "[2]; day 90", "result": "21.93 ± 3.90", "unit": "mg/dL"},
      {"measurement": "VLDL", "setting": "[2]; day 90", "result": "3.12 ± 0.79", "unit": "mg/dL"},
      {"measurement": "increase in TC", "setting": "[2]; prophylactic study, after HFD diet treatment", "result": 10, "unit": "%"},
      {"measurement": "Average Body Weight", "setting": "[3]; HFD continued, day 0", "result": "275.33 ± 7.09"},
      {"measurement": "Average Body Weight", "setting": "[3]; HFD continued, day 15", "result": "270.67 ± 7.37"},
      {"measurement": "Average Body Weight", "setting": "[3]; HFD continued, day 30", "result": "268.33 ± 2.52"},
      {"measurement": "Average Body Weight", "setting": "[3]; HFD continued, day 45", "result": "265.67 ± 6.51"},
      {"measurement": "Average Body Weight", "setting": "[3]; HFD continued, day 60", "result": "262.33 ± 7.15"},
      {"measurement": "Average Body Weight", "setting": "[3]; HFD discontinued, day 0", "result": "270.33 ± 8.74"},
      {"measurement": "Average Body Weight", "setting": "[3]; HFD discontinued, day 30", "result": "264.33 ± 3.06"},
      {"measurement": "Average Body Weight", "setting": "[3]; HFD discontinued, day 45", "result": "263.00 ± 5.57"},
      {"measurement": "Average Body Weight", "setting": "[3]; HFD discontinued, day 60", "result": "259.83 ± 6.27"},
      {"measurement": "Creatine phosphokinase", "setting": "[4]; [6]", "result": "1.33 ± 0.04", "unit": "U/ml"},
      {"measurement": "LDH", "setting": "[4]; [6]", "result": "278.50 ± 5.50", "unit": "U/ml"},
      {"measurement": "SGOT", "setting": "[4]; [6]", "result": "59.03 ± 1.49", "unit": "U/ml"},
      {"measurement": "SGPT", "setting": "[4]; [6]", "result": "55.63 ± 0.51", "unit": "U/ml"},
      {"measurement": "Inhibition in SGPT activity", "setting": "[4]; prophylactic study, composition twice a day", "result": 20, "unit": "%"},
      {"measurement": "Creatine phosphokinase", "setting": "[5]; HFD Continued", "result": "1.31 ± 0.08"},
      {"measurement": "LDH", "setting": "[5]; HFD Continued", "result": "288.32 ± 12.64", "unit": "U/ml"},
      {"measurement": "SGOT", "setting": "[5]; HFD Continued", "result": "63.76 ± 2.92", "unit": "U/ml"},
      {"measurement": "SGPT", "setting": "[5]; HFD Continued", "result": "53.82 ± 1.13", "unit": "U/ml"},
      {"measurement": "LDH", "setting": "[5]; HFD Discontinued", "result": "284.07 ± 5.61", "unit": "U/ml"},
      {"measurement": "SGOT", "setting": "[5]; HFD Discontinued", "result": "62.88 ± 3.43", "unit": "U/ml"},
      {"measurement": "SGPT", "setting": "[5]; HFD Discontinued", "result": "64.69 ± 0.52", "unit": "U/ml"},
      {"measurement": "CPK value increase", "setting": "[5]; therapeutic study", "result": 10, "unit": "%"},
      {"measurement": "SGOT reduction", "setting": "[5]; therapeutic study", "result": 16, "unit": "%"},
      {"measurement": "SGPT reduction", "setting": "[5]; therapeutic study", "result": 5, "unit": "%"}
    ]}
  ]
}
